Laboratory results reported in patent US12209087B2, “AKT1 modulators” (Alterome Therapeutics, Inc., priority 2022, dated 2025).

Molecular target: T1, full length AKT E17K (Homo sapiens, UniProt P31749, E17K)
T1 construct: host or cells: HEK-293 (ATCC CRL-1573)
Test: NanoBRET Target Engagement (TE) Assay
Type: cell-based
Conditions: competitive displacement of tracer in cells, read-out: AKT1 E17K IC50
In short: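 Compound and tracer incubated 2 h before luminescence at donor 450 nm and acceptor 600 nm, with extracellular signal inhibited. EC50 by sigmoidal variable-slope regression.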

T1 sequence (P31749 whole entry E17K): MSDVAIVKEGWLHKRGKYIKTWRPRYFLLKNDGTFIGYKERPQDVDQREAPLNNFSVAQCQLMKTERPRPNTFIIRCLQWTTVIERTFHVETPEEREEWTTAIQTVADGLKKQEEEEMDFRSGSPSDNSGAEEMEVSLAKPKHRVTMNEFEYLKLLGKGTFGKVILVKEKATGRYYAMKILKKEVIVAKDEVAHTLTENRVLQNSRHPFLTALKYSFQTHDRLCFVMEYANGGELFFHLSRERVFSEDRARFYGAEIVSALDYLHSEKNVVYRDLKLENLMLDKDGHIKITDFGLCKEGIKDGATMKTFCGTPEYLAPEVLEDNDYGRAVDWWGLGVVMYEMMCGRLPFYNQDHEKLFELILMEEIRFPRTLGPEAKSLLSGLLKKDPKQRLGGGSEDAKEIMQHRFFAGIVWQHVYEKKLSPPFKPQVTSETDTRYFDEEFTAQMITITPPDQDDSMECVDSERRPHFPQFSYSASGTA

| IC50 [nM] | SMILES |
| --- | --- |
| < 15 | [2H]C([2H])([2H])N(c1ccnc(C#N)n1)C1CCN(C([2H])([2H])c2ccc(-n3c(-c4cccnc4N)nc4ccc(-c5ccc(F)cc5)nc43)cc2)CC1 [Example 442, 4-((1-((4-(2-(2-Aminopyridin-3-yl)-5-(4-fluorophenyl)-3H-imidazo[4,5-b]pyridin-3-yl)phenyl)methyl-d2)piperidin-4-yl)(methyl-d3)amino)pyrimidine-2-carbonitrile] |
| < 15 | N#Cc1nccc(NC2CN(Cc3ccc(-n4c(-c5cccnc5N)nc5ccc(-c6ccc(F)cc6)nc54)cc3)C2)n1 [Example 443, 4-((1-(4-(2-(2-Aminopyridin-3-yl)-5-(4-fluorophenyl)-3H-imidazo[4,5-b]pyridin-3-yl)benzyl)azetidin-3-yl)amino)pyrimidine-2-carbonitrile] |
| 15 to 60 | N#Cc1nccc(NC2CC3(CCN(Cc4ccc(-n5c(-c6cccnc6N)nc6ccc(-c7ccc(F)cc7)nc65)cc4)CC3)C2)n1 [Example 444, 4-((7-(4-(2-(2-Aminopyridin-3-yl)-5-(4-fluorophenyl)-3H-imidazo[4,5-b]pyridin-3-yl)benzyl)-7-azaspiro[3.5]nonan-2-yl)amino)pyrimidine-2-carbonitrile] |
| < 15 | N#Cc1nccc(NC2CC3(C2)CN(Cc2ccc(-n4c(-c5cccnc5N)nc5ccc(-c6ccc(F)cc6)nc54)cc2)C3)n1 [Example 445, 4-((2-(4-(2-(2-Aminopyridin-3-yl)-5-(4-fluorophenyl)-3H-imidazo[4,5-b]pyridin-3-yl)benzyl)-2-azaspiro[3.3]heptan-6-yl)amino)pyrimidine-2-carbonitrile] |
| 15 to 60 | N#Cc1nccc(NC2CCC3(CC2)CN(Cc2ccc(-n4c(-c5cccnc5N)nc5ccc(-c6ccc(F)cc6)nc54)cc2)C3)n1 [Example 446, 4-((2-(4-(2-(2-Aminopyridin-3-yl)-5-(4-fluorophenyl)-3H-imidazo[4,5-b]pyridin-3-yl)benzyl)-2-azaspiro[3.5]nonan-7-yl)amino)pyrimidine-2-carbonitrile] |
| < 15 | N#Cc1nccc(N2CC3(CN(Cc4ccc(-n5c(-c6cccnc6N)nc6ccc(-c7ccc(F)cc7)nc65)cc4)C3)C2)n1 [Example 447, 4-(6-(4-(2-(2-Aminopyridin-3-yl)-5-(4-fluorophenyl)-3H-imidazo[4,5-b]pyridin-3-yl)benzyl)-2,6-diazaspiro[3.3]heptan-2-yl)pyrimidine-2-carbonitrile] |
| 15 to 60 | N#Cc1nccc(N2C[C@H]3CN(Cc4ccc(-n5c(-c6cccnc6N)nc6ccc(-c7ccc(F)cc7)nc65)cc4)C[C@H]3C2)n1 [Example 449, 4-((3aR,6aS)-5-(4-(2-(2-Aminopyridin-3-yl)-5-(4-fluorophenyl)-3H-imidazo[4,5-b]pyridin-3-yl)benzyl)hexahydropyrrolo[3,4-c]pyrrol-2(1H)-yl)pyrimidine-2-carbonitrile] |
| 15 to 60 | N#Cc1nccc(N2C[C@@H]3CN(Cc4ccc(-n5c(-c6cccnc6N)nc6ccc(-c7ccc(F)cc7)nc65)cc4)C[C@H]3C2)n1 [Example 450, 4-((3aS,6aS)-5-(4-(2-(2-Aminopyridin-3-yl)-5-(4-fluorophenyl)-3H-imidazo[4,5-b]pyridin-3-yl)benzyl)hexahydropyrrolo[3,4-c]pyrrol-2(1H)-yl)pyrimidine-2-carbonitrile] |
| < 15 | [2H]C1(Nc2ccnc(C#N)n2)CCN(Cc2ccc(-n3c(-c4cccnc4N)nc4ccc(-c5ccc(F)cc5)nc43)cc2)CC1 [Example 451, 4-((1-(4-(2-(2-Aminopyridin-3-yl)-5-(4-fluorophenyl)-3H-imidazo[4,5-b]pyridin-3-yl)benzyl)piperidin-4-yl-4-d)amino)pyrimidine-2-carbonitrile] |
| < 15 | [2H]C1(Nc2ccnc(C#N)n2)CCN(Cc2ccc(-n3c(-c4cccnc4N)nc4cc(C)c(C)nc43)cc2)CC1 [Example 452, 4-((1-(4-(2-(2-Aminopyridin-3-yl)-5,6-dimethyl-3H-imidazo[4,5-b]pyridin-3-yl)benzyl)piperidin-4-yl-4-d)amino)pyrimidine-2-carbonitrile] |
| < 15 | N#Cc1nccc(NC2CCN(Cc3ccc(-n4c(-c5cccnc5N)nc5ccc(C6=CCCC6)nc54)cc3)CC2)n1 [Example 453, 4-((1-(4-(2-(2-aminopyridin-3-yl)-5-(cyclopent-1-en-1-yl)-3H-imidazo[4,5-b]pyridin-3-yl)benzyl)piperidin-4-yl)amino)pyrimidine-2-carbonitrile] |
| < 15 | C=Cc1ccc2nc(-c3cccnc3N)n(-c3ccc(CN4CCC(Nc5ccnc(C#N)n5)CC4)cc3)c2n1 [Example 454, 4-((1-(4-(2-(2-Aminopyridin-3-yl)-5-vinyl-3H-imidazo[4,5-b]pyridin-3-yl)benzyl)piperidin-4-yl)amino)pyrimidine-2-carbonitrile] |
| < 15 | [2H]C([2H])([2H])N(c1ccnc(C#N)n1)C1CCN(Cc2ccc(-n3c(-c4cccnc4N)nc4cc(C)c(C)nc43)cc2)CC1 [Example 455, 4-((1-(4-(2-(2-Aminopyridin-3-yl)-5,6-dimethyl-3H-imidazo[4,5-b]pyridin-3-yl)benzyl)piperidin-4-yl)(methyl-d3)amino)pyrimidine-2-carbonitrile] |
| < 15 | N#Cc1nccc(NC2CCN(Cc3ccc(-n4c(-c5cccnc5N)nc5ccc(-c6ccc(F)cn6)nc54)cc3)CC2)n1 [Example 456, 4-((1-(4-(2-(2-Aminopyridin-3-yl)-5-(5-fluoropyridin-2-yl)-3H-imidazo[4,5-b]pyridin-3-yl)benzyl)piperidin-4-yl)amino)pyrimidine-2-carbonitrile] |
| 15 to 60 | CNc1ccc2nc(-c3cccnc3N)n(-c3ccc(CN4CCC(Nc5ccnc(C#N)n5)CC4)cc3)c2n1 [Example 457, 4-((1-(4-(2-(2-Aminopyridin-3-yl)-5-(methylamino)-3H-imidazo[4,5-b]pyridin-3-yl)benzyl)piperidin-4-yl)amino)pyrimidine-2-carbonitrile] |
| < 15 | [2H]C([2H])([2H])N(c1ccc2nc(-c3cccnc3N)n(-c3ccc(CN4CCC(Nc5ccnc(C#N)n5)CC4)cc3)c2n1)C([2H])([2H])[2H] [Example 458, 4-((1-(4-(2-(2-Aminopyridin-3-yl)-5-(bis(methyl-d3)amino)-3H-imidazo[4,5-b]pyridin-3-yl)benzyl)piperidin-4-yl)amino)pyrimidine-2-carbonitrile] |
| < 15 | [2H]C([2H])([2H])Nc1ccc2nc(-c3cccnc3N)n(-c3ccc(CN4CCC(Nc5ccnc(C#N)n5)CC4)cc3)c2n1 [Example 459, 4-((1-(4-(2-(2-Aminopyridin-3-yl)-5-((methyl-d3)amino)-3H-imidazo[4,5-b]pyridin-3-yl)benzyl)piperidin-4-yl)amino)pyrimidine-2-carbonitrile] |
| < 15 | N#Cc1nccc(NC2CCN(Cc3ccc(-n4c(-c5cccnc5N)nc5ccc(N6CCC6)nc54)cc3)CC2)n1 [Example 460, 4-((1-(4-(2-(2-Aminopyridin-3-yl)-5-(azetidin-1-yl)-3H-imidazo[4,5-b]pyridin-3-yl)benzyl)piperidin-4-yl)amino)pyrimidine-2-carbonitrile] |
| < 15 | N#Cc1nccc(NC2CCN(Cc3ccc(-n4c(-c5cccnc5N)nc5ccc(-c6cnoc6)nc54)cc3)CC2)n1 [Example 461, 4-((1-(4-(2-(2-Aminopyridin-3-yl)-5-(isoxazol-4-yl)-3H-imidazo[4,5-b]pyridin-3-yl)benzyl)piperidin-4-yl)amino)pyrimidine-2-carbonitrile] |
| < 15 | N#Cc1nccc(NC2CCN(Cc3ccc(-n4c(-c5cccnc5N)nc5ccc(-c6cnco6)nc54)cc3)CC2)n1 [Example 462, 4-((1-(4-(2-(2-Aminopyridin-3-yl)-5-(oxazol-5-yl)-3H-imidazo[4,5-b]pyridin-3-yl)benzyl)piperidin-4-yl)amino)pyrimidine-2-carbonitrile] |
| < 15 | Cc1oncc1-c1ccc2nc(-c3cccnc3N)n(-c3ccc(CN4CCC(Nc5ccnc(C#N)n5)CC4)cc3)c2n1 [Example 463, 4-((1-(4-(2-(2-Aminopyridin-3-yl)-5-(5-methylisoxazol-4-yl)-3H-imidazo[4,5-b]pyridin-3-yl)benzyl)piperidin-4-yl)amino)pyrimidine-2-carbonitrile] |
| < 15 | Cc1nocc1-c1ccc2nc(-c3cccnc3N)n(-c3ccc(CN4CCC(Nc5ccnc(C#N)n5)CC4)cc3)c2n1 [Example 464, 4-((1-(4-(2-(2-Aminopyridin-3-yl)-5-(3-methylisoxazol-4-yl)-3H-imidazo[4,5-b]pyridin-3-yl)benzyl)piperidin-4-yl)amino)pyrimidine-2-carbonitrile] |
| < 15 | Cc1cc(-c2ccc3nc(-c4cccnc4N)n(-c4ccc(CN5CCC(Nc6ccnc(C#N)n6)CC5)cc4)c3n2)[nH]n1 [Example 465, 4-((1-(4-(2-(2-Aminopyridin-3-yl)-5-(3-methyl-1H-pyrazol-5-yl)-3H-imidazo[4,5-b]pyridin-3-yl)benzyl)piperidin-4-yl)amino)pyrimidine-2-carbonitrile] |
| < 15 | CCn1cc(-c2ccc3nc(-c4cccnc4N)n(-c4ccc(CN5CCC(Nc6ccnc(C#N)n6)CC5)cc4)c3n2)cn1 [Example 466, 4-((1-(4-(2-(2-Aminopyridin-3-yl)-5-(1-ethyl-1H-pyrazol-4-yl)-3H-imidazo[4,5-b]pyridin-3-yl)benzyl)piperidin-4-yl)amino)pyrimidine-2-carbonitrile] |
| < 15 | Cn1nccc1-c1ccc2nc(-c3cccnc3N)n(-c3ccc(CN4CCC(Nc5ccnc(C#N)n5)CC4)cc3)c2n1 [Example 467, 4-((1-(4-(2-(2-Aminopyridin-3-yl)-5-(1-methyl-1H-pyrazol-5-yl)-3H-imidazo[4,5-b]pyridin-3-yl)benzyl)piperidin-4-yl)amino)pyrimidine-2-carbonitrile] |

| SMILES | IC50 [nM] |
| --- | --- |
| N#Cc1nccc(N2CC3CCC(C2)N3Cc2ccc(-n3c(-c4cccnc4N)nc4ccc(-c5ccc(F)cc5)nc43)cc2)n1 [Example 448, 4-(8-(4-(2-(2-Aminopyridin-3-yl)-5-(4-fluorophenyl)-3H-imidazo[4,5-b]pyridin-3-yl)benzyl)-3,8-diazabicyclo[3.2.1]octan-3-yl)pyrimidine-2-carbonitrile] | 15 to 60 |
